# Patent US8163793B2, “Proline derivatives” (Hoffman-La Roche Inc., priority 2009, dated 2012)
# Experiments:
# [1] = molecular target: Cathepsin S (UniProt P25774); test: Cathepsin enzyme inhibition assay (fluorogenic peptide substrate Z-Val-Val-Arg-AMC), Cathepsin S; assay type: biochemical, human and mouse; conditions: enzyme 1 nM, substrate 20 μM, pH 6.5; read-out: CatS IC50
# Procedure, shortened: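 Human or mouse cathepsin S (1 nM) was run in 100 mM potassium phosphate pH 6.5 with 5 mM EDTA, 0.001% Triton X-100 and 5 mM DTT. The rise in AMC fluorescence from cleavage was measured, and IC50 values were calculated by standard methods and expressed in μM.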
# [2] = molecular target: Cat L (UniProt P07711); test: Cathepsin enzyme inhibition assay (fluorogenic peptide substrate Z-Val-Val-Arg-AMC), Cathepsin L; assay type: biochemical, human and mouse; conditions: enzyme 1 nM, substrate 20 μM, pH 6.5; read-out: CatL IC50
# Procedure, shortened: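 Cathepsin L at 1 nM was mixed with compound, then started with 20 μM Z-Val-Val-Arg-AMC in pH 6.5 potassium phosphate with EDTA, Triton X-100 and 5 mM DTT. AMC fluorescence (ex 360/em 465 nm) was followed over 20 min. IC50 is given in μM.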
IC50 [1],IC50 [2],SMILES
2.5 nM,44000 nM,"CC(C)(C)OC(=O)N1C[C@H](S(=O)(=O)c2ccc(N3CCC(C(F)(F)F)CC3)cc2Cl)C[C@H]1C(=O)NC1(C#N)CC1 [Example 153, (2S,4R)-4-[2-Chloro-4-(4-trifluoromethyl-piperidin-1-yl)-benzenesulfonyl]-2-(1-cyano-cyclopropylcarbamoyl)-pyrrolidine-1-carboxylic acid tert.-butyl ester]"
1.8 nM,6630 nM,"N#CC1(NC(=O)[C@@H]2C[C@@H](S(=O)(=O)c3ccc(N4CCC(C(F)(F)F)CC4)cc3Cl)CN2)CC1 [Example 154, (2S,4R)-4-[2-Chloro-4-(4-trifluoromethyl-piperidin-1-yl)-benzenesulfonyl]-pyrrolidine-2-carboxylic acid (1-cyano-cyclopropyl)-amide]"
2.5 nM,8320 nM,"N#CC1(NC(=O)[C@@H]2C[C@@H](S(=O)(=O)c3ccc(N4CCC(F)(F)CC4)cc3Cl)CN2)CC1 [Example 155, (2S,4R)-4-[2-Chloro-4-(4,4-difluoro-piperidin-1-yl)-benzenesulfonyl]-pyrrolidine-2-carboxylic Acid (1-cyano-cyclopropyl)-amide]"
0.4 nM,4400 nM,"N#CC1(NC(=O)[C@@H]2C[C@@H](S(=O)(=O)c3ccc(N4CCC(C(F)(F)F)CC4)cc3Cl)CN2C(=O)C2(C(F)(F)F)CC2)CC1 [Example 156, (2S,4R)-4-[2-Chloro-4-(4-trifluoromethyl-piperidin-1-yl)-benzenesulfonyl]-1-(1-trifluoromethyl-cyclopropanecarbonyl)-pyrrolidine-2-carboxylic acid (1-cyano-cyclopropyl)-amide]"
0.4 nM,4410 nM,"N#CC1(NC(=O)[C@@H]2C[C@@H](S(=O)(=O)c3ccc(N4CCC(F)(F)CC4)cc3Cl)CN2C(=O)C2(C(F)(F)F)CC2)CC1 [Example 157, (2S,4R)-4-[2-Chloro-4-(4,4-difluoro-piperidin-1-yl)-benzenesulfonyl]-1-(1-trifluoromethyl-cyclopropanecarbonyl)-pyrrolidine-2-carboxylic acid (1-cyano-cyclopropyl)-amide]"
120 nM,≥ 25000 nM,"CC(C)(C)OC(=O)N1C[C@@H](S(=O)(=O)c2ccccc2C(F)(F)F)C[C@H]1C(=O)NC1(C#N)CC1 [Example 158, (2S,4S)-2-(1-Cyano-cyclopropylcarbamoyl)-4-(2-trifluoromethyl-benzenesulfonyl)-pyrrolidine-1-carboxylic acid tert.-butyl ester]"
2610 nM,≥ 25000 nM,"N#CC1(NC(=O)[C@@H]2C[C@H](S(=O)(=O)c3ccccc3C(F)(F)F)CN2)CC1 [Example 159, (2S,4S)-4-(2-Trifluoromethyl-benzenesulfonyl)-pyrrolidine-2-carboxylic acid (1-cyano-cyclopropyl)-amide]"
6 nM,≥ 25000 nM,"COc1ccc(N2C[C@H](S(=O)(=O)c3ccccc3C(F)(F)F)C[C@H]2C(=O)NC2(C#N)CC2)cc1 [Example 160, (2S,4R)-1-(4-Methoxy-phenyl)-4-(2-trifluoromethyl-benzenesulfonyl)-pyrrolidine-2-carboxylic Acid (1-cyano-cyclopropyl)-amide]"
0.4 nM,6070 nM,"N#CC1(NC(=O)[C@@H]2C[C@@H](S(=O)(=O)c3ccc(N4CCOCC4)cc3Cl)CN2C(=O)C2(C(F)(F)F)CC2)CC1 [Example 161, (2S,4R)-4-(2-Chloro-4-morpholin-4-yl-benzenesulfonyl)-1-(1-trifluoromethyl-cyclopropanecarbonyl)-pyrrolidine-2-carboxylic acid (1-cyano-cyclopropyl)-amide]"
23.5 nM,≥ 25000 nM,"N#CC1(NC(=O)[C@H]2C[C@@H](S(=O)(=O)c3ccc(N4CCOCC4)cc3Cl)CN2C(=O)C2(C(F)(F)F)CC2)CC1 [Example 162, (2R,4R)-4-(2-Chloro-4-morpholin-4-yl-benzenesulfonyl)-1-(1-trifluoromethyl-cyclopropanecarbonyl)-pyrrolidine-2-carboxylic acid (1-cyano-cyclopropyl)-amide]"
